pIC50: −log10 of the molar value.
How the values were obtained:
Gli-Luc/MEF cells (Smo) = assay: Gli-Luc/MEF assay (Shh-stimulated luciferase reporter under the Gli response element); format: cell-based, mouse; conditions: Mus musculus, MEF, 48 h
Method in brief: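 Mouse Gli-Luc/MEF cells dosed with compound (3-fold series, […]) plus 2 μg/mL recombinant mouse Shh, then incubated 48 h at 37° C, 5% CO2. Bright-Glo luminescence read; IC50 calculated from inhibition of Shh-stimulated luciferase.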

[1] = target: T1, human Smo (amino acids 181-787) (Homo sapiens, UniProt Q99835); assay: Smo radioligand competition binding assay (displacement of 3H-PF-03451358 from HEK293 membranes); conditions: for inhibition at 0.05 µM: 0.05 μM test compound, displacement of 3H-PF-03451358, read-out: SMO % inh. @ 0.05 μM; for pIC50: radioligand competition binding
T1 construct: expressed in transfected cells; membrane preparation
T1 sequence (Q99835 181-787): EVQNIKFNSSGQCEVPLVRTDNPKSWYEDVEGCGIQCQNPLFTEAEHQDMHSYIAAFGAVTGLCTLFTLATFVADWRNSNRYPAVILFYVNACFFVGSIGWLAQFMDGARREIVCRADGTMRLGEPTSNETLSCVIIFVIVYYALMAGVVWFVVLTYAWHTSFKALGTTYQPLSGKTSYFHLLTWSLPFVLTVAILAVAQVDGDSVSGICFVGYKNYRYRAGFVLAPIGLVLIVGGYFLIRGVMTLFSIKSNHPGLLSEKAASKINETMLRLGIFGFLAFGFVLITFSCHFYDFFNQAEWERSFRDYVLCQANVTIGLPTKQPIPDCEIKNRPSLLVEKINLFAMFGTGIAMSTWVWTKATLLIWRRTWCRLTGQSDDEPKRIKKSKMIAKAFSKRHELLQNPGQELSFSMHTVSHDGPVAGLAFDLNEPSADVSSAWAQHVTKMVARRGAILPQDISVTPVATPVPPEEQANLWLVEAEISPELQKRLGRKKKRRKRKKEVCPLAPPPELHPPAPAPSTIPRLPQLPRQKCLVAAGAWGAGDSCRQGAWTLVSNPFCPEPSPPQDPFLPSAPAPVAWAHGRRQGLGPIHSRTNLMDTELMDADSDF
Method in brief: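 Membranes (40 μg protein/well) from HEK293 expressing murine Igk-leader-fused Smo 181-787 incubated 2 h at room temperature with 3 nM 3H-PF-03451358 in Tris pH 7.5/NaCl/MgCl2/EDTA/BSA buffer; filter-bound counts by scintillation. Nonspecific binding with 30 μM cold PF-03451358; IC50 from four-parameter fit of % inhibition.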

Structure (SMILES) | pIC50 (Gli-Luc/MEF cells (Smo)) | inhibition at 0.05 µM [1] [%] | pIC50 [1]
CNC(=O)N1CCN(c2cc(-c3nc4ccccc4n3C)c(F)cn2)CC1 [Example D-7, 4-[5-fluoro-4-(1-methyl-1H-benzimidazol-2-yl)pyridin-2-yl]-N-methylpiperazine-1-carboxamide] | 7.27 | 88 | 7.33
CNC(=O)N(C)C1CCN(c2cc(-c3nc4ccccc4n3C)c(Cl)cn2)CC1 [Example A-179, 1-{1-[5-chloro-4-(1-methyl-1H-benzimidazol-2-yl)pyridin-2-yl]piperidin-4-yl}-1,3-dimethylurea] | 8.15 | 97 | 8.00
Cn1c(-c2cccc(N3CCN(S(C)(=O)=O)CC3)n2)nc2ccccc21 [Example B-7, 1-methyl-2-{6-[4-(methylsulfonyl)piperazin-1-yl]pyridin-2-yl}-1H-benzimidazole] | 6.72 | 78 | 7.01
CCn1c(-c2cc(N3CCN(C(C)=O)CC3)ncc2Cl)nc2ccccc21 [Example A-214, 2-[2-(4-acetylpiperazin-1-yl)-5-chloropyridin-4-yl]-1-ethyl-1H-benzimidazole] | 6.91 | 63 | 6.36
CCS(=O)(=O)N1CCN(c2cc(-c3nc4ccccc4n3C)c(Cl)cn2)CC1 [Example A-27, 2-{5-chloro-2-[4-(ethylsulfonyl)piperazin-1-yl]pyridin-4-yl}-1-methyl-1H-benzimidazole] | 8.30 | 93 | 7.31
Cc1cnc(N2CCN(S(C)(=O)=O)CC2)cc1-c1nc2ccccc2n1C [Example E-3, 1-methyl-2-{5-methyl-2-[4-(methylsulfonyl)piperazin-1-yl]pyridin-4-yl}-1H-benzimidazole] | 7.42 | 97 | 7.48
CN(CCCO)c1cc(-c2nc3ccccc3n2C)c(Cl)cn1 [Example A-163, 3-{[5-chloro-4-(1-methyl-1H-benzimidazol-2-yl)pyridin-2-yl](methyl)amino}propan-1-ol] | 7.85 | 98 | 7.77
Cn1c(-c2cc(N3CCC(O)(c4ccn[nH]4)C3)ncc2Cl)nc2ccccc21 (stereo not drawn) [Example A-105, 1-[5-chloro-4-(1-methyl-1H-benzimidazol-2-yl)pyridin-2-yl]-3-(1H-pyrazol-5-yl)pyrrolidin-3-ol] | 7.62 | 79 | 7.19
CN(CCNS(C)(=O)=O)c1cc(-c2nc3ccccc3n2C)c(Cl)cn1 [Example A-145, N-(2-{[5-chloro-4-(1-methyl-1H-benzimidazol-2-yl)pyridin-2-yl](methyl)amino}ethyl)methanesulfonamide] | 7.66 | 97 | 7.66
CC(=O)NC1CCN(c2cc(-c3nc4ccccc4n3C)ccn2)CC1 [Example A-16, N-{1-[4-(1-methyl-1H-benzimidazol-2-yl)pyridin-2-yl]piperidin-4-yl}acetamide] | 7.19 | 81 | 6.99
Cn1c(-c2cc(N3CCNC(=O)CC3)ncc2Cl)nc2ccccc21 [Example A-33, 1-[5-chloro-4-(1-methyl-1H-benzimidazol-2-yl)pyridin-2-yl]-1,4-diazepan-5-one] | 8.10 | 98 | 8.05
COCc1nnc2n1CCN(c1cc(-c3nc4ccccc4n3C)c(Cl)cn1)CC2 [Example A-93, 7-[5-chloro-4-(1-methyl-1H-benzimidazol-2-yl)pyridin-2-yl]-3-(methoxymethyl)-6,7,8,9-tetrahydro-5H-[1,2,4]triazolo[4,3-d][1,4]diazepine] | 7.51 | 87 | 7.28
CC(=O)NC1CN(c2cc(-c3nc4ccccc4n3C)c(Cl)cn2)C1 [Example A-43, N-{1-[5-chloro-4-(1-methyl-1H-benzimidazol-2-yl)pyridin-2-yl]azetidin-3-yl}acetamide] | 7.04 | 86 | 6.72
Cn1c(-c2cc(NCCO)ncc2Cl)nc2ccccc21 [Example A-172, 2-{[5-chloro-4-(1-methyl-1H-benzimidazol-2-yl)pyridin-2-yl]amino}ethanol] | 7.28 | 80 | 6.97
Cn1c(-c2cc(N3CCC(O)(CN4CCCC4=O)CC3)ncc2Cl)nc2ccccc21 [Example A-118, 1-({1-[5-chloro-4-(1-methyl-1H-benzimidazol-2-yl)pyridin-2-yl]-4-hydroxypiperidin-4-yl}methyl)pyrrolidin-2-one] | 6.96 | 65 | 
CC(=O)N1CCN(c2cc(-c3nc4ccccc4n3C)c(Cl)cn2)C[C@H]1C [Example A-159, 2-{2-[(3R)-4-acetyl-3-methylpiperazin-1-yl]-5-chloropyridin-4-yl}-1-methyl-1H-benzimidazole] | 8.40 | 100 | 8.00
Cn1c(-c2cc(N3CCN(c4ccc(C#N)cn4)CC3)ncc2Cl)nc2ccccc21 [Example A-189, 6-{4-[5-chloro-4-(1-methyl-1H-benzimidazol-2-yl)pyridin-2-yl]piperazin-1-yl}nicotinonitrile] | 9.10 | 99 | 7.96
Cn1c(-c2nc(N3CCN(C(=O)CCO)CC3)ncc2Cl)nc2ccccc21 [Example C-17, 3-{4-[5-chloro-4-(1-methyl-1H-benzimidazol-2-yl)pyrimidin-2-yl]piperazin-1-yl}-3-oxopropan-1-ol] | 7.76 | 98 | 
Cn1c(-c2cc(N3CCC(C(=O)NCC(C)(C)O)CC3)ncc2Cl)nc2ccccc21 [Example A-212, 1-[5-chloro-4-(1-methyl-1H-benzimidazol-2-yl)pyridin-2-yl]-N-(2-hydroxy-2-methylpropyl)piperidine-4-carboxamide] | 7.54 | 99 | 7.92
Cn1c(-c2cc(N3C[C@@H](CO)[C@@H](CCO)C3)ncc2Cl)nc2ccccc21 [Example A-111, 2-[(3R,4S)-1-[5-chloro-4-(1-methyl-1H-benzimidazol-2-yl)pyridin-2-yl]-4-(hydroxymethyl)pyrrolidin-3-yl]ethanol] | 7.60 | 73 | 6.94
CC(=O)N1[C@@H]2CC[C@H]1CN(c1cc(-c3nc4ccccc4n3C)c(Cl)cn1)C2 [Example A-187, 2-{2-[(1R,5S)-8-acetyl-3,8-diazabicyclo[3.2.1]oct-3-yl]-5-chloropyridin-4-yl}-1-methyl-1H-benzimidazole] | 8.00 | 90 | 7.57
CC(=O)NCC1CCCN(c2cc(-c3nc4ccccc4n3C)c(Cl)cn2)C1 (stereo not drawn) [Example A-62, N-({1-[5-chloro-4-(1-methyl-1H-benzimidazol-2-yl)pyridin-2-yl]piperidin-3-yl}methyl)acetamide] | 7.68 | 95 | 7.62
Cn1c(-c2nc(N3CCC(O)CC3)ncc2Cl)nc2ccccc21 [Example C-11, 1-[5-chloro-4-(1-methyl-1H-benzimidazol-2-yl)pyrimidin-2-yl]piperidin-4-ol] | 7.62 | 98 | 7.80
Cn1c(-c2cc(N3CCC(C(=O)N4CCOCC4)CC3)ncc2Cl)nc2ccccc21 [Example A-80, 2-{5-chloro-2-[4-(morpholin-4-ylcarbonyl)piperidin-1-yl]pyridin-4-yl}-1-methyl-1H-benzimidazole] | 8.10 | 92 | 7.35
Cn1c(-c2cc(N3C[C@H]4C[C@@H]3CN4S(C)(=O)=O)ncc2Cl)nc2ccccc21 [Example A-146, 2-{5-chloro-2-[(1R,4R)-5-(methylsulfonyl)-2,5-diazabicyclo[2.2.1]hept-2-yl]pyridin-4-yl}-1-methyl-1H-benzimidazole] | 7.04 | 75 | 6.69
Cn1c(-c2cc(N3CCC(O)(c4cncnc4)C3)ncc2Cl)nc2ccccc21 (stereo not drawn) [Example A-128, 1-[5-chloro-4-(1-methyl-1H-benzimidazol-2-yl)pyridin-2-yl]-3-pyrimidin-5-ylpyrrolidin-3-ol] | 7.10 | 54 | 
CCn1nnnc1C1CN(c2cc(-c3nc4ccccc4n3C)c(Cl)cn2)CCO1 (stereo not drawn) [Example A-71, 2-{5-chloro-2-[2-(1-ethyl-1H-tetrazol-5-yl)morpholin-4-yl]pyridin-4-yl}-1-methyl-1H-benzimidazole] | 8.00 | 94 | 7.74
CC(=O)N1CCN(c2cccc(-c3nc4ccccc4n3C)n2)CC1 [Example B-8, 2-[6-(4-acetylpiperazin-1-yl)pyridin-2-yl]-1-methyl-1H-benzimidazole] | 7.34 | 90 | 7.49
Cn1c(-c2cc(N3CCN(C4CCS(=O)(=O)C4)CC3)ncc2Cl)nc2ccccc21 (stereo not drawn) [Example A-86, 2-{5-chloro-2-[4-(1,1-dioxidotetrahydro-3-thienyl)piperazin-1-yl]pyridin-4-yl}-1-methyl-1H-benzimidazole] | 7.37 | 90 | 7.21
Cn1c(-c2cc(N3CCN(C(=O)CO)CC3)ncc2Cl)nc2ccccc21 [Example A-202, 2-{4-[5-chloro-4-(1-methyl-1H-benzimidazol-2-yl)pyridin-2-yl]piperazin-1-yl}-2-oxoethanol] | 8.05 | 97 | 7.96
